Read-outs that look alike come from different tables or passages of the source.
Legend:
[1] = logP by HPLC on reversed-phase column (EEC Directive 79/831 Annex V.A8); type: physicochemical; conditions: for chromatographic logP: reversed-phase HPLC column (C18)
Procedure: Temperature: 40° C.; Mobile phases: 0.1% aqueous formic acid and acetonitrile; linear gradient from 10% acetonitrile to 90% acetonitrile.
Calibration was carried out using unbranched alkan-2-ones (comprising 3 to 16 carbon atoms) with known logP values (determination of the logP values by the retention times using linear interpolation between two successive alkanones).

[2] = test system: Aedes aegypti larvae; experiment: In vivo protective test on Aedes aegypti (AEDSAE U)
Procedure: In Vivo Protective Test on Aedes Aegypti (AEDSAE U)
Solvent: 1% N-methylpyrrolidone (NMP)
• 1% diacetonealcohol Dye: brillantsulfoflavin for staining water
To produce a suitable preparation of the active compound, the active compound is mixed with the stated amount of solvent, and the concentrate is diluted with staining water to the desired concentration.
Aedes aegypti larvae are pipetted with a preparation of active ingredient of the desired concentration.
After the specified period of time, mortality in % is determined. 100% means that all larvae have been killed, a 0% means that none of the larvae have been killed.

[3] = test system: Myzus persicae; experiment: In vivo protective test on Myzus persicae (MYZUPE); conditions: Chinese cabbage leaf-disks, all instars, spray
Procedure: In Vivo Protective Test on Myzus persicae (MYZUPE)
(§1) Solvent: 78 parts by weight acetone
• 1.5 parts by weight dimethylformamide Dye: 0.5 parts by weight alkylarylpolyglcolether
(§2) To produce a suitable preparation of active compound, 1 part by weight of active compound is mixed with the stated amount of solvent and emulsifier, and the concentrate is diluted with emulsifier-containing water to the desired concentration.
Chinese cabbage (Brassica pekinesis) leaf-disks infected with all instars of the green peach aphid (Myzus persicae), are sprayed with a preparation of the active ingredient at the desired concentration.
After the specified period of time, mortality in % is determined. 100% means that all aphids have been killed; 0% means that none of the aphids have been killed.

[4] = test system: Heliothis viresens; experiment: In vivo protective test on Heliothis virescens (HELIVI); parameters: species or system Heliotis virescens; conditions: soybean leaf sections, eggs
Procedure: In Vivo Protective Test on Heliothis viresens (HELIVI)
as §1
• 1.5 parts by weight dimethylformamide Wetting agent: 0.5 parts by weight alkylarylpolyglcolether
as §2
Soybean (Glycine max.) leaf sections are sprayed with a preparation of the active ingredient of the desired concentration. Once dry, the leaf sections are infested with eggs of cotton bollworm (Heliotis virescens).
After the specified period of time, mortality in % is determined. 100% means that all eggs have been killed and 0% means that none of the eggs have been killed.

[5] = HPLC, C18, 40° C., 0.1% aqueous formic acid and acetonitrile

| chromatographic logP ([1]; pH 2.3, read-out: log P (pH 2.3)) | chromatographic logP ([1]; HPLC, C18, 40° C., 0.1% aqueous formic acid and acetonitrile, read-out: log P) | SMILES | activity (mortality) [2] | log P [1, 5] | activity (mortality) [3] | activity (mortality) [4] |
| --- | --- | --- | --- | --- | --- | --- |
| 2.24 | 2.24 | CCN(C)/C=N/c1cc(C)c(OCc2cccc(C(F)(F)F)c2)cc1C [Compound 9, N′-(2,5-dimethyl-4-{[3-(trifluoromethyl)benzyl]oxy}phenyl)-N-ethyl-N-methylimidoformamide] | good activity | – | – | – |
| – | – | CCN(C)C=Nc1cc(C)c(OC(C)c2ccccc2Cl)cc1C (stereo not drawn) [Compound 29] | good activity | 2.24 | good activity | – |
| – | – | CCN(C)C=Nc1cc(C)c(OC(C)c2ccc(F)cc2)cc1C (stereo not drawn) [Compound 6] | good activity | 2.08 | – | good activity |
| – | – | CCN(C)C=Nc1cc(C)c(OCc2c(Cl)cccc2Cl)cc1C [Compound 3] | good activity | 2.05 | good activity | – |
| – | – | CCN(C)C=Nc1cc(C)c(OCc2ccc(Cl)cc2)cc1C [Compound 1] | good activity | 2.14 | – | – |
| – | – | CCN(C)C=Nc1cc(C)c(OCc2cccc(Cl)c2)cc1C [Compound 7] | good activity | 2.13 | – | good activity |
| – | – | CCN(C)C=Nc1cc(C)c(OCc2ccc(Cl)cc2C(F)(F)F)cc1C [Compound 18] | good activity | 2.52 | good activity | – |
| – | – | CCN(C)C=Nc1cc(C)c(OCc2ccc(Cl)c(Cl)c2)cc1C [Compound 13] | good activity | 2.38 | good activity | – |
| – | – | CCN(C)C=Nc1cc(C)c(OCc2ccc(C(F)(F)F)cc2)cc1C [Compound 14] | good activity | 2.28 | – | – |
| – | – | CCN(C)C=Nc1cc(C)c(OC(C)c2c(Cl)cccc2Cl)cc1C (stereo not drawn) [Compound 4] | good activity | 2.52 | – | – |

Reference: patent publication US7855309B2, “Pesticide benzyloxy- and phenetyl-substituted phenyl-amidine derivatives” (Bayer CropScience AG, priority 2005, dated 2010)
